Laboratory results taken from patent publication US12533341B2, “Small molecule inhibitors of voltage-gated sodium channel 1.7 and methods of using same” (Duke University, priority 2019, dated 2026).
Entries after “also recorded” stand apart in the source; their conditions may differ. Read-outs that look alike come from different tables or passages of the source.

How the values were obtained:
hNav1.5 = target: T1, hNav1.5 (Homo sapiens, UniProt Q14524); test: Whole-cell patch-clamp of sodium currents in Nav1.5-transfected HEK293 cells; format: cell-based; conditions: FIG. 4D, E
T1 construct: expressed in transfected cells; host or cells: HEK293 (ATCC), transient transfection with Lipofectamine 2000
Experimental: HEK-hNav1.7 stable cell line was purchased from SB Drug Discovery (Glasgow, United Kingdom). Human embryonic kidney 293 (HEK293) cells were obtained from the ATCC and maintained at the Duke cell culture facility. Cells were cultured in high-glucose (4.5 g/L) DMEM containing 10% (v/v) FBS (Gibco) and streptomycin/penicillin. For Nav1.7-expressing HEK293 cells, an additional antibiotic, blasticidin, was included. hNav1.5 transfection was performed by Lipofectamine 2000 at 70% confluence using 2 μg cDNA. The transfected cells were cultured in the same growth medium for 48 h before biochemical or electrophysiological studies.
Whole-cell patch-clamp recordings were conducted at room temperature. Patch pipettes pulled from borosilicate capillaries (World Precision Instruments, Inc., Sarasota, FL) were used to record transient Na currents with an Axopatch-200B amplifier with a Digidata 1440A (Axon Instruments, Sunnyvale CA). The resistance was set to 3-4 MΩ when filled with pipette solution. The pipette solution contained (in mmol/L): CsCl 130, NaCl 9, MgCl2 1, EGTA 10, HEPES 10, adjusted to pH 7.3 with CsOH. The external solution for recording transient Na^+ currents contained (in mmol/L): NaCl 131, TEACl 10, CsCl 10, CaCl2) 1, MgCl2 2, CdCl2 0.3, 4-aminopyridine 3, HEPES 10, glucose 10, adjusted to pH 7.4 with NaOH. The recording chamber (300 μL) was continuously superfused at 3-4 mL/min. […]

[1] = tested on: mouse dorsal root ganglion (DRG) neurons; test: Patch-clamp of transient sodium currents in mouse DRG neurons (naive and paclitaxel-pretreated); format: cell-based; conditions: for inhibition at 10 µM: Mus musculus, DRG neuron
Experimental: Mouse DRGs were removed aseptically from mice (4-6 weeks) and incubated with collagenase (1.25 mg/mL, Roche)/dispase-II (2.4 units/mL, Roche) in HBSS buffer at 37° C. for 90 min. Cells were mechanically dissociated with a flame polished Pasteur pipette in the presence of 0.05% DNAse I (Sigma). DRG cells were plated on 0.5 mg/mL poly-D-lysine-coated glass cover slips and grown in a neurobasal defined medium (with 10% FBS, 2% B27 supplement, Invitrogen) with 5 μM AraC and 5% carbon dioxide at 36.5° C. DRG neurons were grown for 24 hours before use. Patch clamp recordings were conducted in small-diameter (<25 μm) DRG neurons.
Whole-cell patch-clamp recordings were conducted at room temperature. Patch pipettes pulled from borosilicate capillaries (World Precision Instruments, Inc., Sarasota, FL) were used to record transient Na currents with an Axopatch-200B amplifier with a Digidata 1440A (Axon Instruments, Sunnyvale CA). The resistance was set to 3-4 MΩ when filled with pipette solution. The pipette solution contained (in mmol/L): CsCl 130, NaCl 9, MgCl2 1, EGTA 10, HEPES 10, adjusted to pH 7.3 with CsOH. The external solution for recording transient Na^+ currents contained (in mmol/L): NaCl 131, TEACl 10, CsCl 10, CaCl2) 1, MgCl2 2, CdCl2 0.3, 4-aminopyridine 3, HEPES 10, glucose 10, adjusted to pH 7.4 with NaOH. The recording chamber (300 μL) was continuously superfused at 3-4 mL/min. Series resistance was compensated (>80%) and leak subtraction was performed. Data were low-pass-filtered at 2 kHz and sampled at 10 kHz. pClamp10 (Axon Instruments) software was used during experiments and analysis. In voltage-clamp experiments, transient Na+ currents were evoked by a test pulse to 0 mV from the holding potential (−70 mV).

[2] = tested on: paclitaxel-induced mechanical allodynia; test: Paclitaxel-induced neuropathic pain model (von Frey); format: in vivo, mouse; conditions: for effect on paclitaxel-induced mechanical allodynia: mice
Experimental: Intraperitoneal injection of paclitaxel (PTX, 2 mg/kg for multiple injections at day 0, 2, 4, and 6) was given to generate chemotherapy-associated neuropathic pain. Neuropathic pain behavior was tested 3 weeks after PTX injection using a von Frey test. Briefly, animals were habituated to the testing environment daily for at least 2 days before the baseline testing. Animals were confined in boxes placed on an elevated metal mesh floor and the hind paws were stimulated with a series of von Frey hairs with logarithmically increasing stiffness (0.02-2.56 g, Stoelting), presented perpendicularly to the central plantar surface. The 50% paw withdrawal threshold was determined by an up-down method.

[3] = tested on: lymphoma-induced chronic itch; test: Mouse CTCL xenograft model of chronic itch; format: in vivo
Experimental: We used a murine xenograft model of cutaneous T cell lymphoma (CTCL) using immune-deficient mice (NOD.CB17-Prkdcscid, 8-10 weeks old, male). CD4+ MyLa cell line was purchased from Sigma (Catalog #95051032). The cell line was established from a plaque biopsy of a person with mycosis fungoides stage II by inclusion of IL-2 and IL-4 in the culture medium. CTCL was generated via intradermal injection of CD4+ Myla cells (1×10^5 cells/μL, 100 μL) on the nape of the neck. Itch behavior was tested on Day 50 after inoculation of CTCL cells.

[4] = tested on: formalin-induced inflammatory pain; test: Formalin-induced nociceptive behavioral test; format: in vivo, mouse; conditions: mice
Experimental: The formalin test was conducted following our previously published protocol (Chen, Ji, et al. 2018; Neurosci Bull; 34: 98-108). The animals were acclimatized in a transparent acrylic observation chamber for 2 days before test. Vehicle or active compound were administered intrathecally, intraperitoneally, or intraplantarly, 30 min later followed by an intraplantar injection of 20 μL of 5% formalin. After the formalin injection, mice were immediately placed back in the observation chamber, and videoed for 40 min. The videos were analyzed after experiments in a double blinded way. We assessed formalin-evoked spontaneous pain by measuring the time (in seconds) mice spent on licking or flinching the affected paw every 5 min for […]. Phase I and Phase II were defined as periods of 0-10 min and 10-40 min, respectively.
For intrathecal injection, spinal cord puncture was made by a Hamilton microsyringe (Hamilton Company, Reno, Nevada) with a 30-G needle between the L5 and L6 level to deliver reagents (5 μL) to the cerebral spinal fluid. For intraperitoneal injection, Vehicle or drug was injected into peritoneal with a 30-G needle. For intraplantar injection, 20 μL vehicle or drug was injected into the surface of the hind paw.

[5] = tested on: human dorsal root ganglion (DRG) neurons; test: Patch-clamp of transient sodium currents in human DRG neurons; format: cell-based
Experimental: Non-diseased human DRGs were obtained from donors through NDRI with permission of exemption from Duke IRB. Postmortem L3-L5 DRGs were dissected and delivered in ice-cold culture medium to the laboratory at Duke University within 24-72 hours of donor's death. Upon the delivery, DRGs were rapidly dissected from nerve roots and minced in a calcium-free HBSS (Gibco). DRGs were digested at 37° C. in a humidified 02 incubator for 120 min with collagenase Type II (Worthington, 285 units/mg, 12 mg/mL final concentration) and dispase II (Roche, 1 unit/mg, 20 mg/mL) in HBSS buffer. DRGs were mechanically dissociated using fire-polished pipettes, filtered through a […] nylon mesh and centrifuged (500×g for 5 min). The pellet was resuspended, plated on 0.5 mg/mL poly-D-lysine-coated glass coverslips, and cells were grown in Neurobasal medium supplemented with 10% FBS, 2% B-27 supplement, and 1% penicillin/streptomycin. Patch clamp recordings were conducted in small-diameter (<55 μm) DRG neurons (PMID: 26479925).
Whole-cell patch-clamp recordings were conducted at room temperature. Patch pipettes pulled from borosilicate capillaries (World Precision Instruments, Inc., Sarasota, FL) were used to record transient Na currents with an Axopatch-200B amplifier with a Digidata 1440A (Axon Instruments, Sunnyvale CA). The resistance was set to 3-4 MΩ when filled with pipette solution. […]

T1 sequence (Q14524 whole entry): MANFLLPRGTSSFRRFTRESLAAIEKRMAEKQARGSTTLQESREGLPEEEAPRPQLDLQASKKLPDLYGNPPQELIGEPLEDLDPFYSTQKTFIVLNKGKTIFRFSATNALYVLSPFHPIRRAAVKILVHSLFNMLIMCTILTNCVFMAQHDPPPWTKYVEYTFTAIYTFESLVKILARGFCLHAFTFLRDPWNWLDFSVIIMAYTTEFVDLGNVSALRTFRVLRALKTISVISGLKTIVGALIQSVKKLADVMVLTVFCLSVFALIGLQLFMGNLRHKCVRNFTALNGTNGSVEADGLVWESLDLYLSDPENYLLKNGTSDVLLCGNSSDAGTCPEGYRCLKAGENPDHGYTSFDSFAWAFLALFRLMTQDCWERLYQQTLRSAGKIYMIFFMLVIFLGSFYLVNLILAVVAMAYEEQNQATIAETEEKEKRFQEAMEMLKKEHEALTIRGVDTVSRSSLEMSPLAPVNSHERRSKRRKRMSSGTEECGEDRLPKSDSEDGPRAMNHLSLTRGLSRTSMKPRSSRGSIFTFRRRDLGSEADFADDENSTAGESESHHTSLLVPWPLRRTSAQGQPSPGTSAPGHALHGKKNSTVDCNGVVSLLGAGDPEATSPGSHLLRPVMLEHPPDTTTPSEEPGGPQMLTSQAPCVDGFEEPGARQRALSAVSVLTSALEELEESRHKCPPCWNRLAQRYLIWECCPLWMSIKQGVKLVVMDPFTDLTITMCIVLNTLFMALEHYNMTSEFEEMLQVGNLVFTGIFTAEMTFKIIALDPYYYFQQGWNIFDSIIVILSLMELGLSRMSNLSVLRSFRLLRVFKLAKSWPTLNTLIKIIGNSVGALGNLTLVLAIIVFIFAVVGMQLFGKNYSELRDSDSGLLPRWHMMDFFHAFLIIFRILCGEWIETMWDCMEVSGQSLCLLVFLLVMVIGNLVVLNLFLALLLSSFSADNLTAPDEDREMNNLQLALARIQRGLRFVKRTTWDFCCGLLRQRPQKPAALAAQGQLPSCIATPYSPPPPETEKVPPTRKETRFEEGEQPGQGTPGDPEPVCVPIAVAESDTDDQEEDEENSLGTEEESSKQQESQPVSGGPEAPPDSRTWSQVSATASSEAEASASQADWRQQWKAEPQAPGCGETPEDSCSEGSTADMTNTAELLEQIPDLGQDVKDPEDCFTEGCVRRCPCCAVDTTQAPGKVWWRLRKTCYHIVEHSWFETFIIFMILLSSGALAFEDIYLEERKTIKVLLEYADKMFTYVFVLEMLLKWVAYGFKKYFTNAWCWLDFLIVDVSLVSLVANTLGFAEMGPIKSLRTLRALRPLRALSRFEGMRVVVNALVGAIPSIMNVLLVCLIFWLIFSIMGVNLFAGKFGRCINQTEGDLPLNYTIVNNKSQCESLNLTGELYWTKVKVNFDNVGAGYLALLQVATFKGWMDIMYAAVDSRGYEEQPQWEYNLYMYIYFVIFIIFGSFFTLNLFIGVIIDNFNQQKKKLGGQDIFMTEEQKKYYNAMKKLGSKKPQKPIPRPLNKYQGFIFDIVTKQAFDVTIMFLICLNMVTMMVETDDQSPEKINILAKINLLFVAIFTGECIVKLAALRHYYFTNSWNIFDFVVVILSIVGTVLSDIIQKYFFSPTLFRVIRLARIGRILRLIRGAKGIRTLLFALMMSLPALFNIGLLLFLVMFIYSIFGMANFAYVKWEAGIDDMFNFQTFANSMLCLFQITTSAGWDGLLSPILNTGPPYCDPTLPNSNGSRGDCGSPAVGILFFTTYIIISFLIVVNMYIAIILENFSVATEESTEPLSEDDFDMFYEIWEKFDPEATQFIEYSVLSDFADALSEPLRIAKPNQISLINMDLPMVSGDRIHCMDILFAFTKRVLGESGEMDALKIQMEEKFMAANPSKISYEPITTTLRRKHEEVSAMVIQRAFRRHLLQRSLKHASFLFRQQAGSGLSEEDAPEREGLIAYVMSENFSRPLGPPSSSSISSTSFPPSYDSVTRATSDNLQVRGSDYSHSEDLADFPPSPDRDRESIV

O=C(CC(c1cccc(Oc2ccccc2)c1)c1cn(Cc2ccccc2)c2ccccc12)NCCN1CCCC1 (stereo not shown) [Compound 9, 3-(1-benzyl-1H-indol-3-yl)-3-(3-phenoxyphenyl)-N-(2-(pyrrolidin-1-yl)ethyl)propanamide]
effect on sodium currents in Nav1.5-expressing HEK293 cells (hNav1.5): no effects
effect on sodium currents in Nav1.5-expressing HEK293 cells (hNav1.5; listed as DA-0218): no effect
time to peak inhibition after the drug incubation ([1]; 10 μM, mouse DRG neurons): 10 min
inhibition at 10 µM ([1]; 10 μM, naive (non-treated) mouse DRG neurons, read-out: inhibition of peak INaT (sodium currents)): 17%
inhibition at 10 µM ([1]; 10 μM, paclitaxel pretreated mouse DRG neurons, read-out: inhibition of sodium currents): 44%
mean relative current at the last measurement ([1]; mouse DRG neurons, naive): 72 % of the baseline
mean relative current at the last measurement ([1]; mouse DRG neurons, paclitaxel-treated): 43 % of the baseline
effect on paclitaxel-induced mechanical allodynia ([2]; intraperitoneal 30 mg/kg, listed as DA-0218): no effect on allodynia; also recorded: did not produce any anti-allodynia effects
effect duration, chronic pain ([2]; intrathecal, paclitaxel model): 3 h
effect on paclitaxel-induced mechanical allodynia ([2]; intrathecal, single injection, listed as DA-0218): acute reduction; also recorded: transiently but completely reversed; also recorded: statistically significant anti-allodynia effects
analgesic effect after repeated intrathecal injections (2nd and 3rd injection) ([2]; tested one hour after each injection, paclitaxel model, listed as DA-0218): did not produce any analgesic effect; also recorded: induced acute tolerance
effect duration, chronic itch ([3]; intrathecal): > 5 h
effect on lymphoma-induced chronic itch (scratch) ([3]; intrathecal 30 nmol, Day 50 after CTCL inoculation, listed as DA-0218): inhibited; also recorded: significant reduction of scratch; also recorded: effective against lymphoma-induced itch
inhibition of formalin-induced pain in Phase II ([4]; intraperitoneal 30 mg/kg): 76%
inhibition of formalin-induced pain in Phase II ([4]; intraplantar 60 nmol): significant inhibition
effect on formalin Phase I response ([4]; intrathecal 30 nmol): reduced Phase I response
inhibition of formalin-induced second-phase (Phase II) pain ([4]; intrathecal (3, 10 and 30 nmol)): 80%
mean relative current at the last measurement [5]: 73 % of the baseline
relative current difference (inhibition of peak INaT) ([5]; 10 uM): 0.22
